In assay [1] the test system is S. aureus 30857, a rifampin-resistant isolate. It counts as cell-based, Staphylococcus aureus. To be noted: strain 30857. On the procedure:
(§1) The mutation frequency for development of resistance to the rifamycin derivative (1) as compared to rifampin was determined with selected Staphylococcus aureus strains.
(§2) Four S. aureus strains were used: S. aureus 30857, a rifampin-resistant isolate: S. aureus 6097, a strain used in the mouse mastitis test and originally from a case of gangrenous bovine mastitis; S. aureus B83-1, derived from the Newbould 305 strain; and S. aureus ATCC 29213, the in vitro control stain recommended by NCCLS.
(§3) All S. aureus strains were maintained on 3 mm glass beads immersed in trypticase soy broth (BBL Microbiology Systems, Cockeysville, Md.) with 10% glycerol and held at −70° C. until revived. Prior to testing, the strains were subcultured on tryptose blood agar base (Difco, Detroit, Mich.) supplemented with 5% sheep blood for 24 hours at 35° C.
(§4) These compounds were dissolved in 95% ethanol, a solution which was then diluted to 10% ethanol with sterile distilled water. Further dilutions were conducted in water.
(§5) The mutation frequency for development of resistance to the compounds tested was determined by the following method. A single colony of each strain was removed from the surface of a blood agar plate with a cotton swab, suspended in 5 ml of Mueller-Hinton broth (BBL), and streaked on the entire surface of five Mueller-Hinton agar plates. The plates were incubated overnight under aerobic conditions at 35° C., growth was removed from the agar using a sterile cotton swab, and the bacteria were suspended in 10 ml physiological saline. This bacterial suspension was the inoculum for the mutation frequency determinations. Standard plate counts were performed on the inoculum by performing serial dilutions and plating a 0.1 ml aliquot on the surface of ten Mueller-Hinton agar plates at each concentration. The plates were incubated for 18-24 hours at 35° C. under aerobic conditions and colony counts performed. Mean bacterial counts were calculated for the inoculum with each strain.
(§6) A 0.1 ml aliquot of the inoculum was then used to inoculate the entire surface of ten plates each containing 1, 10, and 100 μg/ml of the test antimicrobial agents. The plates were incubated for 18-24 hours at 35° C. under aerobic conditions and colony counts performed. Mean bacterial counts were calculated for each antimicrobial concentration and the mutation frequency calculated by dividing the number of colonies which grew on the drug containing media by the inoculum size.

Assay [2] concerns S. aureus 6097. The assay is described as follows: Mutation frequency for resistance, strain 6097. It counts as cell-based, Staphylococcus aureus. The procedure:
as §1, §2, §3, §4, §5, §6

In assay [3] the test system is Staphylococcus aureus 9203. The assay is described as follows: S. aureus intracellular killing assay in bovine PMN. It counts as cell-based. To be noted: overnight incubation (18 to 21 hours). On the procedure:
The therapeutic effect of the rifamycin derivative (1) was determined by S. aureus intracellular killing assay in bovine polymorphonuclear neutrophil (PMN).
The procedure for PMN isolation was as described in Carlton et al. (Proc. Soc. Exp. Biol. Med. 142: 853-858 (1973)).
Bovine blood collected by venipuncture in 50-ml syringes containing 1.5% EDTA (pH 6.8) was centrifuged at 1,000×g for 25 min. The plasma-buffer layer and the top few millileters were discarded. The packed erythrocyte fraction was pooled in 0.8% NaCl-phosphate buffer (pH 6.8) and 10 ml was placed in 20 ml of sterile water for 40 seconds to lyse the erythrocytes. Immediately thereafter, 10 ml of a 2.7% NaCl-phosphate buffer solution was added to restore isotonicity. The leukocytes, consisting of ≦84% PMNs, were washed twice and suspended in HBSS. PMNs were adjusted to a final concentration of 10^7 cells per ml.
The intracellular killing assay was carried out as described in Sanchez et al. (Antimicrobial Agents and Chemotherapy 29(4): 634-638 (1986)).
Bovine blood PMNs and bacteria (1:1) were suspended in HBSS containing 10% heterologous bovine serum. The mixture was incubated for 90 minutes at 37° C. in Erlenmeyer flasks with rotational mixing at 110 rpm. Lysostaphin (5 μg/ml) was added to the mixture for the final 15 minutes of incubation. The infected PMNs were washed 3 times by low-speed centrifugation and suspended in HBSS. Cells were pipetted (1 ml) into each well of a six-well cluster dish (Bellco Glass, Inc., Vineland, N.J.) at 5×10^6 PMNs per well. PMNs were allowed to attach and form a monolayer for 10 minutes at 37° C. The supernatant fluid with unattached cells was discarded, and 2 ml of fresh HBSS was added to each well. The rifamycin derivatives to be tested were then added to the wells (one six-well plate per drug). These derivatives were dissolved in dimethylsulfoxide, and then diluted in HBSS to final solvent concentrations of 0.01% (vol/vol) or less.
After overnight incubation (18 to 21 hours) at 37° C. with 1% CO2, lysostaphin (5 μg/ml) was added to each well for 15 min (at 37° C.) to kill extracellular bacteria. The monolayers were washed with HBSS, and the cells were lysed by addition of 1 ml of water to each well. The number of viable bacteria was then estimated by plate counts on brain heart infusion agar. […] The results are shown in Table 2, wherein R is the alkyl group in the rifamycin derivative (1).

For assay [4], the system named is S. aureus ATCC 29213. The assay is described as follows: Mutation frequency for resistance, strain ATCC 29213. Type of assay: cell-based, Staphylococcus aureus. The procedure: as §1, §2, §3, §4, §5, §6
In assay [5] the test system is S. aureus ATCC 29213. The assay is described as follows: MIC, microbroth dilution, strain ATCC 29213. Type of assay: cell-based, Staphylococcus aureus. On the procedure: as §2, §3, §4
(§7) MIC (Minimum Inhibitory Concentration) determinations were performed using the microbroth dilution method. (National Committee for Clinical Laboratory Standards, 1990 Approved Standard […]. Methods for dilution antimicrobial susceptibility tests for bacteria that grow aerobically, 3rd edition. National Committee for Clinical Laboratory Standards, Villanova, Pa.) The results are shown in Table 3, wherein R is the alkyl group R in the rifamycin derivative (1).
For orientation: Broth dilution looks for growth in wells or tubes with falling amounts of substance.

In assay [6] the test system is S. aureus B83-1. Kind of assay: Mutation frequency for resistance, strain B83-1. It counts as cell-based, Staphylococcus aureus. On the procedure: as §1, §2, §3, §4, §5, §6
For assay [7], the system named is S. aureus 6097. Kind of assay: MIC, microbroth dilution, strain 6097. It counts as cell-based, Staphylococcus aureus. The procedure: as §2, §3, §4, §7
Assay [8] concerns S. aureus 30857, a rifampin-resistant isolate. The assay is described as follows: MIC, microbroth dilution, strain 30857. It counts as cell-based, Staphylococcus aureus. To be noted: for MIC: strain 30857. On the procedure: as §2, §3, §4, §7
The subject of assay [9] is Staphylococcus aureus 9203. The assay is described as follows: MIC against the strain of the intracellular killing assay. Type of assay: cell-based.
Assay [10] has as its system Staphylococcus aureus 6097. Kind of assay: Dose titration in the mouse mastitis model (S. aureus-induced murine mastitis). It counts as in vivo. To be noted: mice, read 6 days after infection; for ED (mg/kg/d) Mastitis: 50% of mice without mastitis; for ED (mg/kg/d) Culture: 50% of mice with no bacteria cultured from gland.
Setting [11] is: route IMM (intramammary), 1 hour after infection.
Setting [12] is: Staphylococcus aureus, read-out: MIC.

≈ marks a conversion by molar mass, not a printed value. Where two headings read alike, the source gives them in different places.

For the compound `COC1/C=C/OC2(C)Oc3c(C)c(O)c4c(=O)c(c5oc6cc(N7CCN(C)CC7)cc(O)c6nc-5c4c3C2=O)NC(=O)/C(C)=C\C=C\C(C)C(O)C(C)C(O)C(C)C(OC(C)=O)C1C` (centres unmarked) [R = methyl], the Mutation frequency in assay [1] (1 μg/ml) is given as <1.6 × 10^−10; in assay [1] (10 μg/ml), <1.6 × 10^−10; in assay [1] (100 μg/ml) it was <1.6 × 10^−10; in [2] (1 μg/ml), 4.0 × 10^−8; in assay [2] (10 μg/ml), <1.8 × 10^−10; in assay [2] (100 μg/ml), <1.8 × 10^−10. Further, the Mutation frequency in assay [4] (1 μg/ml) is recorded as 2.1 × 10^−9; in assay [4] (10 μg/ml), <1.1 × 10^−9; in assay [4] (100 μg/ml) it was <1.1 × 10^−9; in [6] (1 μg/ml), 1.5 × 10^−8; in assay [6] (10 μg/ml), <1.8 × 10^−9; in [6] (100 μg/ml), <1.8 × 10^−9. The “% reduction” value in assay [3] (1X MIC) is on record as 92.0%; in [3] (100X MIC), 100%. The “CFU/ml ISD (×10^3)” value is listed as 0.3 ± 0.1 CFU/ml (×10^3) in assay [3] (1X MIC) and 0.0 CFU/ml (×10^3) in assay [3] (100X MIC). For the same compound, the MIC (as a rule, the least concentration at which growth counts as inhibited) in [5] is 0.061 ng/mL (≈ 0.0679 nM); in [7], 0.061 ng/mL (≈ 0.0679 nM); in assay [8] it was 500 ng/mL (≈ 556 nM); in [9], “≦0.03 μg/ml”. Further, in [8] (MIC, in words), the “effectiveness against rifampin-resistant strains” value is listed as “effective against rifampin-resistant strains”. For the same compound, the figures for the “ED (mg/kg/d) Mastitis” value in assay [10] (setting [11]) and in [10] (route SC (subcutaneous)) were 0.3 mg/kg/day and 0.2 mg/kg/day, respectively. Besides, the “ED (mg/kg/d) Culture” value in [10] (route IMM (intramammary)) came to 0.3 mg/kg/day; in assay [10] (route SC (subcutaneous)), 0.5 mg/kg/day.

Take `CO[C@H]1/C=C/O[C@@]2(C)Oc3c(C)c(O)c4c(O)c(c(/C=N/N5CCN(C)CC5)c(O)c4c3C2=O)NC(=O)/C(C)=C\C=C\[C@H](C)[C@H](O)[C@@H](C)[C@@H](O)[C@@H](C)[C@H](OC(C)=O)[C@@H]1C` [Rifampin, reference compound]: the Mutation frequency in [1] (1 μg/ml) is listed as >1.0 × 10^−7; in assay [1] (10 μg/ml), >1.0 × 10^−7; in assay [1] (100 μg/ml), >1.0 × 10^−7; in [2] (1 μg/ml), 1.2 × 10^−8; in [2] (10 μg/ml), 2.0 × 10^−8; in assay [2] (100 μg/ml), 4.9 × 10^−9. The Mutation frequency in [4] (1 μg/ml) was 2.6 × 10^−8; in [4] (10 μg/ml), 2.5 × 10^−8; in [4] (100 μg/ml), 1.9 × 10^−8; in assay [6] (1 μg/ml), 3.7 × 10^−8; in assay [6] (10 μg/ml), 4.5 × 10^−8; in assay [6] (100 μg/ml) it was 1.9 × 10^−8. The figures for the “% reduction” value in assay [3] (1X MIC) and in assay [3] (100X MIC) were 83.0% and 85.0%, respectively. The entries for the “CFU/ml ISD (×10^3)” value in assay [3] (1X MIC) and in assay [3] (100X MIC) were 0.6 ± 0.3 CFU/ml (×10^3) and 0.5 ± 0.2 CFU/ml (×10^3), respectively. Besides, the MIC in assay [5] (Staphylococcus aureus, ATCC29213, read-out: MIC) was 1.9 ng/mL (≈ 2.31 nM); in [7] (setting [12]), 1.9 ng/mL (≈ 2.31 nM); in assay [8] (setting [12]) it was over 4000 ng/mL; in [9] (read-out: MIC), at most 30 ng/mL. Also, the “ED (mg/kg/d) Mastitis” value in [10] (setting [11]) was found to be 0.4 mg/kg/day. The “ED (mg/kg/d) Culture” value in [10] (route IMM (intramammary)) is over 2.0 mg/kg/day.

Source of the values: patent US6486161B1, “Use of rifamycin derivative for treating mastitis in a domestic animal” (priority 2000, dated 2002).
